The source of these data is US9499572B2, “Phosphatidylalkanols and compositions thereof” (Pethmark AB, priority 2013, dated 2016).

A short description of the data set: Estimated concentration in DMSO-d6 after shaking an excess at 38° C., cooling to 22° C. and decantation (1H-NMR integrals). The data set is classed as physicochemical. The conditions noted are these: organic solvent or mixture, thermodynamic from solid, Composition Example 13, excess shaken at 38° C. for 15 min, cooled to 22° C., decanted, no additive, read-out: concentration in the solution (limit of solubility). The protocol: A mixture of PEth-16:0/18:1-NMe3 (15 mg), dimethyl sulfone (0.4 mg) and DMSO-d6 (0.75 ml) was shaken at 38° C. for 15 min. The mixture was then allowed to reach ambient temperature (22° C.) and kept at that temperature for 1 h. The solution was then separated from a glassy precipitate by decantation and transferred to an NMR-tube. The concentration of PEth-16:0/18:1-NMe3 in the solution was estimated to be about 3 mg/ml by comparison of ^1H-NMR integrals in the ^1H-NMR spectrum (FIG. 7) of signals from PEth-16:0/18:1-NMe3 with the signal of dimethyl sulfone.

Where a name gives a salt, the structure may show the parent alone.

Regarding `CCCCCCCC/C=C\CCCCCCCC(=O)O[C@H](COC(=O)CCCCCCCCCCCCCCC)COP(=O)(O)OCC` [PEth-16:0/18:1-NMe3, 1-Palmitoyl-2-oleoyl-3-ethoxyhydroxyphosphinyl-sn-glycerol trimethylammonium salt], the solubility at 15 min was around 3000 µg/mL.
